Experimental data taken from article PMC5146859, “Phase 1/2 study of pacritinib, a next generation JAK2/FLT3 inhibitor, in myelofibrosis or other myeloid malignancies” (Journal of Hematology & Oncology, 2016).

System: patients with MF
Assay: Phase 2 safety: adverse events, serious adverse events and deaths
Type: in vivo, human
Description: At screening/baseline, patients underwent a medical history, physical examination, vital sign assessment, ECOG PS assessment, electrocardiogram, and assessment of hematologic parameters and blood chemistry. Hematology/blood chemistry, physical examinations, and vital sign assessments were performed throughout treatment. Toxicity was assessed using the National Cancer Institute Common Terminology Criteria for Adverse Events (NCIC-CTCAE), version 3.0, with relationship to treatment assigned by the investigator and were recorded from the first dose of pacritinib until 30 days after the last dose. Bone marrow biopsy and/or aspirate samples were drawn at baseline, on day 1 of cycle 4 and cycle 10, as clinically indicated, and at the termination visit. Disease response and progression were determined using the relevant International Working Group (IWG) criteria.
The efficacy-evaluable population included those patients with a baseline and corresponding follow-up value. The safety population included all enrolled patients who received ≥1 dose of pacritinib.

C1=C/COCc2cc(ccc2OCCN2CCCC2)Nc2nccc(n2)-c2cccc(c2)COC/1 [pacritinib, 11-(2-pyrrolidin-1-yl-ethoxy)-14,19-dioxa-5,7,26-triaza-tetracyclo[19.3.1.1(2,6). 1(8,12)]heptacosa-1(25),2(26),3,5,8,10,12(27),16,21,23-decaene]
Relation of deaths to pacritinib (phase 2): None of the deaths were considered related to pacritinib | SAEs considered related to pacritinib (phase 2): two | Gastrointestinal toxicities (phase 2, n = 31): reported by all patients | Grade 3/4 AE: anemia (phase 2, n = 31): 5 n | Grade 3/4 AE: bone pain (phase 2, n = 31): 4 n | Grade 3/4 AE: diarrhea (phase 2, n = 31): 5 n | Grade 3/4 AE: fatigue (phase 2, n = 31): 5 n | Grade 3 or 4 thrombocytopenia (phase 2, n = 31): three | Grade 3 treatment-related AEs (phase 2, n = 31): 22.6% | Grade 4 treatment-related AEs (phase 2, n = 31): No grade 4/5 treatment-related AEs were reported | Leukopenia, neutropenia, lymphopenia (phase 2, n = 31): No leukopenia, neutropenia, or lymphopenia was reported | Patients who discontinued pacritinib because of an AE (phase 2, n = 31): 9.7% | Patients with SAEs (phase 2, n = 31): 41.9% | Patients with at least one grade 3/4 AE (phase 2, n = 31): 71.0% | Patients with dose interruptions because of AEs (phase 2, n = 31): Fourteen | Patients with dose reductions because of AEs (phase 2, n = 31): 14 patients | Treatment-related AE: diarrhea (phase 2, n = 31): 90.3% | Treatment-related AE: fatigue (phase 2, n = 31): 12.9% | Treatment-related AE: nausea (phase 2, n = 31): 48.4% | Treatment-related AE: vomiting (phase 2, n = 31): 29.0% | Treatment-emergent AE: Abdominal pain (phase 2, n = 31, Any grade): 9 (29.0) n (%) | Treatment-emergent AE: Anemia (phase 2, n = 31, Any grade): 6 (19.4) n (%) | Treatment-emergent AE: Asthenia (phase 2, n = 31, Any grade): 5 (16.1) n (%) | Treatment-emergent AE: Bone pain (phase 2, n = 31, Any grade): 6 (19.4) n (%) | Treatment-emergent AE: Cardiac murmur (phase 2, n = 31, Any grade): 4 (12.9) n (%) | Treatment-emergent AE: Constipation (phase 2, n = 31, Any grade): 5 (16.1) n (%) | Treatment-emergent AE: Diarrhea (phase 2, n = 31, Any grade): 28 (90.3) n (%) | Treatment-emergent AE: Dyspnea (phase 2, n = 31, Any grade): 5 (16.1) n (%) | Treatment-emergent AE: Edema peripheral (phase 2, n = 31, Any grade): 12 (38.7) n (%) | Treatment-emergent AE: Fatigue (phase 2, n = 31, Any grade): 18 (58.1) n (%) | Treatment-emergent AE: Hyperuricemia (phase 2, n = 31, Any grade): 4 (12.9) n (%) | Treatment-emergent AE: Insomnia (phase 2, n = 31, Any grade): 9 (29.0) n (%) | Treatment-emergent AE: Nausea (phase 2, n = 31, Any grade): 16 (51.6) n (%) | Treatment-emergent AE: Night sweats (phase 2, n = 31, Any grade): 7 (22.6) n (%) | Treatment-emergent AE: Pain in extremity (phase 2, n = 31, Any grade): 8 (25.8) n (%) | Treatment-emergent AE: Pruritus (phase 2, n = 31, Any grade): 9 (29.0) n (%) | Treatment-emergent AE: Pyrexia (phase 2, n = 31, Any grade): 4 (12.9) n (%) | Treatment-emergent AE: Rash (phase 2, n = 31, Any grade): 4 (12.9) n (%) | Treatment-emergent AE: Upper respiratory tract infection (phase 2, n = 31, Any grade): 4 (12.9) n (%) | Treatment-emergent AE: Vomiting (phase 2, n = 31, Any grade): 11 (35.5) n (%) | Treatment-emergent AE: Weight decreased (phase 2, n = 31, Any grade): 4 (12.9) n (%) | Treatment-emergent AE: Abdominal pain (phase 2, n = 31, Grade 1): 3 (9.7) n (%) | Treatment-emergent AE: Anemia (phase 2, n = 31, Grade 1): 0 n (%) | Treatment-emergent AE: Asthenia (phase 2, n = 31, Grade 1): 4 (12.9) n (%) | Treatment-emergent AE: Bone pain (phase 2, n = 31, Grade 1): 1 (3.2) n (%) | Treatment-emergent AE: Cardiac murmur (phase 2, n = 31, Grade 1): 0 n (%) | Treatment-emergent AE: Constipation (phase 2, n = 31, Grade 1): 5 (16.1) n (%) | Treatment-emergent AE: Diarrhea (phase 2, n = 31, Grade 1): 14 (45.2) n (%) | Treatment-emergent AE: Dyspnea (phase 2, n = 31, Grade 1): 4 (12.9) n (%) | Treatment-emergent AE: Edema peripheral (phase 2, n = 31, Grade 1): 6 (19.4) n (%) | Treatment-emergent AE: Fatigue (phase 2, n = 31, Grade 1): 2 (6.5) n (%) | Treatment-emergent AE: Hyperuricemia (phase 2, n = 31, Grade 1): 2 (6.5) n (%) | Treatment-emergent AE: Insomnia (phase 2, n = 31, Grade 1): 7 (22.6) n (%) | Treatment-emergent AE: Nausea (phase 2, n = 31, Grade 1): 9 (29.0) n (%) | Treatment-emergent AE: Night sweats (phase 2, n = 31, Grade 1): 4 (12.9) n (%) | Treatment-emergent AE: Pain in extremity (phase 2, n = 31, Grade 1): 5 (16.1) n (%) | Treatment-emergent AE: Pruritus (phase 2, n = 31, Grade 1): 4 (12.9) n (%) | Treatment-emergent AE: Pyrexia (phase 2, n = 31, Grade 1): 4 (12.9) n (%) | Treatment-emergent AE: Rash (phase 2, n = 31, Grade 1): 2 (6.5) n (%) | Treatment-emergent AE: Upper respiratory tract infection (phase 2, n = 31, Grade 1): 3 (9.7) n (%) | Treatment-emergent AE: Vomiting (phase 2, n = 31, Grade 1): 7 (22.6) n (%) | Treatment-emergent AE: Weight decreased (phase 2, n = 31, Grade 1): 4 (12.9) n (%) | Treatment-emergent AE: Abdominal pain (phase 2, n = 31, Grade 2): 3 (9.7) n (%) | Treatment-emergent AE: Anemia (phase 2, n = 31, Grade 2): 1 (3.2) n (%) | Treatment-emergent AE: Asthenia (phase 2, n = 31, Grade 2): 1 (3.2) n (%) | Treatment-emergent AE: Bone pain (phase 2, n = 31, Grade 2): 1 (3.2) n (%) | Treatment-emergent AE: Cardiac murmur (phase 2, n = 31, Grade 2): 4 (12.9) n (%) | Treatment-emergent AE: Constipation (phase 2, n = 31, Grade 2): 0 n (%) | Treatment-emergent AE: Diarrhea (phase 2, n = 31, Grade 2): 9 (29.0) n (%) | Treatment-emergent AE: Dyspnea (phase 2, n = 31, Grade 2): 0 n (%) | Treatment-emergent AE: Edema peripheral (phase 2, n = 31, Grade 2): 5 (16.1) n (%) | Treatment-emergent AE: Fatigue (phase 2, n = 31, Grade 2): 11 (35.5) n (%) | Treatment-emergent AE: Hyperuricemia (phase 2, n = 31, Grade 2): 0 n (%) | Treatment-emergent AE: Insomnia (phase 2, n = 31, Grade 2): 2 (6.5) n (%) | Treatment-emergent AE: Nausea (phase 2, n = 31, Grade 2): 6 (19.4) n (%) | Treatment-emergent AE: Night sweats (phase 2, n = 31, Grade 2): 3 (9.7) n (%) | Treatment-emergent AE: Pain in extremity (phase 2, n = 31, Grade 2): 2 (6.5) n (%) | Treatment-emergent AE: Pruritus (phase 2, n = 31, Grade 2): 4 (12.9) n (%) | Treatment-emergent AE: Pyrexia (phase 2, n = 31, Grade 2): 0 n (%) | Treatment-emergent AE: Rash (phase 2, n = 31, Grade 2): 1 (3.2) n (%) | Treatment-emergent AE: Upper respiratory tract infection (phase 2, n = 31, Grade 2): 1 (3.2) n (%) | Treatment-emergent AE: Vomiting (phase 2, n = 31, Grade 2): 3 (9.7) n (%) | Treatment-emergent AE: Weight decreased (phase 2, n = 31, Grade 2): 0 n (%) | Treatment-emergent AE: Abdominal pain (phase 2, n = 31, Grade 3): 3 (9.7) n (%) | Treatment-emergent AE: Anemia (phase 2, n = 31, Grade 3): 3 (9.7) n (%) | Treatment-emergent AE: Asthenia (phase 2, n = 31, Grade 3): 0 n (%) | Treatment-emergent AE: Bone pain (phase 2, n = 31, Grade 3): 4 (12.9) n (%) | Treatment-emergent AE: Cardiac murmur (phase 2, n = 31, Grade 3): 0 n (%) | Treatment-emergent AE: Constipation (phase 2, n = 31, Grade 3): 0 n (%) | Treatment-emergent AE: Diarrhea (phase 2, n = 31, Grade 3): 5 (16.1) n (%) | Treatment-emergent AE: Dyspnea (phase 2, n = 31, Grade 3): 1 (3.2) n (%) | Treatment-emergent AE: Edema peripheral (phase 2, n = 31, Grade 3): 1 (3.2) n (%) | Treatment-emergent AE: Fatigue (phase 2, n = 31, Grade 3): 4 (12.9) n (%) | Treatment-emergent AE: Hyperuricemia (phase 2, n = 31, Grade 3): 0 n (%) | Treatment-emergent AE: Insomnia (phase 2, n = 31, Grade 3): 0 n (%) | Treatment-emergent AE: Nausea (phase 2, n = 31, Grade 3): 1 (3.2) n (%) | Treatment-emergent AE: Night sweats (phase 2, n = 31, Grade 3): 0 n (%) | Treatment-emergent AE: Pain in extremity (phase 2, n = 31, Grade 3): 0 n (%) | Treatment-emergent AE: Pruritus (phase 2, n = 31, Grade 3): 1 (3.2) n (%) | Treatment-emergent AE: Pyrexia (phase 2, n = 31, Grade 3): 0 n (%) | Treatment-emergent AE: Rash (phase 2, n = 31, Grade 3): 1 (3.2) n (%) | Treatment-emergent AE: Upper respiratory tract infection (phase 2, n = 31, Grade 3): 0 n (%) | Treatment-emergent AE: Vomiting (phase 2, n = 31, Grade 3): 1 (3.2) n (%) | Treatment-emergent AE: Weight decreased (phase 2, n = 31, Grade 3): 0 n (%) | Treatment-emergent AE: Abdominal pain (phase 2, n = 31, Grade 4): 0 n (%) | Treatment-emergent AE: Anemia (phase 2, n = 31, Grade 4): 2 (6.5) n (%) | Treatment-emergent AE: Asthenia (phase 2, n = 31, Grade 4): 0 n (%) | Treatment-emergent AE: Bone pain (phase 2, n = 31, Grade 4): 0 n (%) | Treatment-emergent AE: Cardiac murmur (phase 2, n = 31, Grade 4): 0 n (%) | Treatment-emergent AE: Constipation (phase 2, n = 31, Grade 4): 0 n (%) | Treatment-emergent AE: Diarrhea (phase 2, n = 31, Grade 4): 0 n (%) | Treatment-emergent AE: Dyspnea (phase 2, n = 31, Grade 4): 0 n (%) | Treatment-emergent AE: Edema peripheral (phase 2, n = 31, Grade 4): 0 n (%) | Treatment-emergent AE: Fatigue (phase 2, n = 31, Grade 4): 1 (3.2) n (%) | Treatment-emergent AE: Hyperuricemia (phase 2, n = 31, Grade 4): 2 (6.5) n (%) | Treatment-emergent AE: Insomnia (phase 2, n = 31, Grade 4): 0 n (%) | Treatment-emergent AE: Nausea (phase 2, n = 31, Grade 4): 0 n (%) | Treatment-emergent AE: Night sweats (phase 2, n = 31, Grade 4): 0 n (%) | Treatment-emergent AE: Pain in extremity (phase 2, n = 31, Grade 4): 1 (3.2) n (%) | Treatment-emergent AE: Pruritus (phase 2, n = 31, Grade 4): 0 n (%) | Treatment-emergent AE: Pyrexia (phase 2, n = 31, Grade 4): 0 n (%) | Treatment-emergent AE: Rash (phase 2, n = 31, Grade 4): 0 n (%) | Treatment-emergent AE: Upper respiratory tract infection (phase 2, n = 31, Grade 4): 0 n (%) | Treatment-emergent AE: Vomiting (phase 2, n = 31, Grade 4): 0 n (%) | Treatment-emergent AE: Weight decreased (phase 2, n = 31, Grade 4): 0 n (%) | Patients who died (phase 2, of 33 enrolled): 27.3%
